Reference: patent US20110159019A1, “2,4-DIAMINOPYRIMIDINE COMPOUND” (priority 2008, published 2011)
Structures can show the parent of a compound that is named as a salt.

Target: T1, Full-length human PKCθ (Homo sapiens, UniProt Q04759)
T1 construct: Full-length human PKCθ (Carna Biosciences, final 31 ng/mL); purchased Carna Biosciences
Assay: Measurement of human PKCθ enzyme inhibition activity (HTRF KinEASE S1 kit)
Type: biochemical
Conditions: full-length human PKCθ, ATP 30 μM, HTRF; read-out: IC50 (nM), human PKCθ enzyme inhibition
Description: Test Method 1: Measurement of Human PKCθ Enzyme Inhibition Activity
The test was carried out using a HTRF® KinEASE™ S1 kit (CIS bio). […] Then, 3 μL of an ATP liquid (final 30 μM) was dispensed therein to carry out an enzyme reaction at room temperature for 1 hour.
Ex represents Compound No. of Examples as described later.

T1 sequence (Q04759 whole entry): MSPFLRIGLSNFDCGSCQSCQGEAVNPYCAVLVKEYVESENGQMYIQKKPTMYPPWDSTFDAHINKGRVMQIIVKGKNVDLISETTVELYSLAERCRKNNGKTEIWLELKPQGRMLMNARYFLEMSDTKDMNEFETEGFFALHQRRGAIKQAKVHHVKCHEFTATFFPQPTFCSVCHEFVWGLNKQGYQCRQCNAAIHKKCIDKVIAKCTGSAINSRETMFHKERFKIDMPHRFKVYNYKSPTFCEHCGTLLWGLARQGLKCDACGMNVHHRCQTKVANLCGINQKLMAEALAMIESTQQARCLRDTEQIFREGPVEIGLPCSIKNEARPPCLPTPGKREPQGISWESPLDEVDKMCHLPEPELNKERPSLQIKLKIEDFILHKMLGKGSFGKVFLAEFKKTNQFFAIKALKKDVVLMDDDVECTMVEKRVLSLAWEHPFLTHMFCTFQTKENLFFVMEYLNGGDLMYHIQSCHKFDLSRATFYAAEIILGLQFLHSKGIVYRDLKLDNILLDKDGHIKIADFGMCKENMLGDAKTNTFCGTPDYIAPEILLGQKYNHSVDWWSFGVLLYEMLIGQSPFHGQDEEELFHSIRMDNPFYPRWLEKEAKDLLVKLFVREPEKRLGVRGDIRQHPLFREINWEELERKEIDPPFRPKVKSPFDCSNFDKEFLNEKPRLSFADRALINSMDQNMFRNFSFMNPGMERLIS

SMILES	IC50 [nM]
N#Cc1cnc(NCc2ccccc2Cl)nc1NC[C@]12CC3C[C@H](C1)[C@@H](NCCCO)[C@@H](C3)C2 (relative stereo) [Example 28]	1.3
N#Cc1cnc(NCc2ccccc2Cl)nc1NC[C@]12CC3C[C@H](C1)[C@@H](N[C@H]1CC[C@H](O)CC1)[C@@H](C3)C2 (relative stereo) [Example 60]	1.1
CN(C)[C@@H]1[C@@H]2CC3C[C@H]1C[C@@](CNc1nc(NCc4ccccc4OC(F)(F)F)ncc1C#N)(C3)C2 (relative stereo) [Example 70]	1.9
N#Cc1cnc(NCc2ccccc2OC(F)(F)F)nc1NC[C@]12CC3C[C@H](C1)[C@@H](NC1CCOCC1)[C@@H](C3)C2 (relative stereo) [Example 74]	0.65
N#Cc1cnc(NCc2ccccc2OC(F)(F)F)nc1NC[C@]12CC3C[C@H](C1)[C@@H](NCc1cccnc1)[C@@H](C3)C2 (relative stereo) [Example 76]	2.3
N#Cc1cnc(NCc2cccc(Cl)c2Cl)nc1NC[C@]12CC3C[C@H](C1)[C@@H](N)[C@@H](C3)C2 (relative stereo) [Example 140]	2.5
COc1ccc(Cl)c(CNc2ncc(C#N)c(NC[C@]34CC5C[C@H](C3)[C@@H](N)[C@@H](C5)C4)n2)c1 (relative stereo) [Example 150]	5.3
N[C@@H]1[C@@H]2CC3C[C@H]1C[C@@](CNc1nc(NCc4ccccc4OC(F)(F)F)ncc1C(F)(F)F)(C3)C2 (relative stereo) [Example 178]	7.6
COc1ccccc1CNc1ncc(C#N)c(NC[C@]23CC4C[C@H](C2)[C@@H](NCC(CO)CO)[C@@H](C4)C3)n1 (relative stereo) [Example 194]	6.5
N#Cc1cnc(NCc2ccccc2Cl)nc1NC[C@]12CC3C[C@H](C1)[C@@H](NCC(=O)N1CCC(O)CC1)[C@@H](C3)C2 (relative stereo) [Example 204]	11
N#Cc1cnc(NCc2ccccc2Cl)nc1NC[C@]12CC3C[C@H](C1)[C@@H](NCCN1CCC(O)CC1)[C@@H](C3)C2 (relative stereo) [Example 208]	1.6
N#Cc1cnc(NCc2ccccc2OC(F)(F)F)nc1NC[C@]12CC3C[C@H](C1)[C@@H](NC1CCC(N4CCC[C@H]4CO)CC1)[C@@H](C3)C2 (relative stereo) [Example 240]	0.064
CC(C)N1CCC(N[C@@H]2[C@@H]3CC4C[C@H]2C[C@@](CNc2nc(NCc5ccccc5OC(F)(F)F)ncc2C#N)(C4)C3)CC1 (relative stereo) [Example 246]	0.31
CSc1ccccc1CNc1ncc(C#N)c(NC[C@]23CC4C[C@H](C2)[C@@H](NC[C@H]2CC[C@@H](O)CC2)[C@@H](C4)C3)n1 (relative stereo) [Example 264]	1.9
N#Cc1cnc(NCc2ccccc2OC(F)(F)F)nc1NC[C@]12CC3C[C@H](C1)[C@@H](N[C@H]1CC[C@@H](NC4CCOCC4)CC1)[C@@H](C3)C2 (relative stereo) [Example 284]	0.28
N#Cc1cnc(NCCc2cccc(Cl)c2)nc1NC[C@]12CC3C[C@H](C1)[C@@H](N)[C@@H](C3)C2 (relative stereo) [Example 292]	10
CC(Nc1ncc(C#N)c(NC[C@]23CC4C[C@H](C2)[C@@H](N)[C@@H](C4)C3)n1)c1ccccc1Cl (relative stereo) [Example 302]	14
N#Cc1cnc(NCc2ccccc2Cl)nc1NC[C@]12CC3C[C@H](C1)C(N1CCC(N)CC1)[C@@H](C3)C2 (relative stereo) [Example 318]	0.86
N#Cc1cnc(NCc2ccccc2Cl)nc1NC[C@]12CC3C[C@H](C1)[C@@H](NC[C@H]1CC[C@H](CO)CC1)[C@@H](C3)C2 (relative stereo) [Example 341]	1.7
CSc1ncccc1CNc1ncc(C#N)c(NC[C@]23CC4C[C@H](C2)[C@@H](NC[C@H]2CC[C@H](CO)CC2)[C@@H](C4)C3)n1 (relative stereo) [Example 342]	0.48

SMILES	IC50 [nM]
N#Cc1cnc(NCc2ccccc2OC(F)F)nc1NC[C@]12CC3C[C@H](C1)[C@@H](NC[C@H]1CC[C@H](O)CC1)[C@@H](C3)C2 (relative stereo) [Example 348]	0.41
N#Cc1cnc(NCc2ccccc2Cl)nc1NC[C@]12CC3C[C@H](C1)[C@@H](NCC1CCN(CC(F)F)CC1)[C@@H](C3)C2 (relative stereo) [Example 357]	1.2
C[C@]1(O)CC[C@H](CN[C@@H]2[C@@H]3CC4C[C@H]2C[C@@](CNc2nc(NCc5ccccc5OC(F)(F)F)ncc2C#N)(C4)C3)CC1 (relative stereo) [Example 363]	0.58
C[C@]1(O)CC[C@@H](CN[C@@H]2[C@@H]3CC4C[C@H]2C[C@@](CNc2nc(NCc5ccccc5OC(F)F)ncc2C#N)(C4)C3)CC1 (relative stereo) [Example 371]	0.7
N#Cc1cnc(NCc2ccccc2Cl)nc1NC[C@]12CC3C[C@H](C1)[C@@H](NC1CCNCC1F)[C@@H](C3)C2 (relative stereo) [Example 383]	1.6
N[C@@H]1[C@@H]2CC3C[C@H]1C[C@@](CNc1nc(NCc4ccccc4OC(F)(F)F)ncc1[N+](=O)[O-])(C3)C2 (relative stereo) [Example 388]	3.3
N[C@@H]1[C@@H]2CC3C[C@H]1C[C@@](CNc1nc(NCc4ccccc4OC(F)(F)F)ncc1F)(C3)C2 (relative stereo) [Example 390]	2.1
N#Cc1cnc(NCc2ccccc2OC(F)(F)F)nc1NC[C@]12CC3C[C@H](C1)[C@@H](N1CCC(O)C1)[C@@H](C3)C2 (stereo partly shown) [Example 11]	1
N#Cc1cnc(NCc2ccccc2OC(F)(F)F)nc1NCC1CN2CCC1CC2 (stereo not shown) [Example 48]	54
N#Cc1cnc(NCc2ccccc2OC(F)(F)F)nc1NC[C@]12CC3C[C@H](C1)C[C@@](CN)(C3)C2 [Example 57]	15
N#Cc1cnc(NCc2ccccc2OC(F)(F)F)nc1NC[C@H]1C[C@H](N)C1 [Example 125]	89
N#Cc1cnc(NCc2ccccc2OC(F)(F)F)nc1NC[C@@H]1CC[C@@H](N)C1 [Example 126]	100
COc1ccc(CO)cc1CNc1ncc(C#N)c(NC[C@]23CC4C[C@H](C2)[C@@H](N)[C@@H](C4)C3)n1 [Example 139]	13
N#Cc1cnc(NCCc2ccc(O)cc2)nc1NC[C@]12CC3C[C@H](C1)[C@@H](N)[C@@H](C3)C2 [Example 145]	1.6
N#Cc1cnc(NCc2ccccc2OC(F)(F)F)nc1NCCC(=O)N1CCNCC1 [Example 156]	67
N#Cc1cnc(NCc2cccnc2Cl)nc1NC[C@]12CC3C[C@H](C1)[C@@H](N)[C@@H](C3)C2 [Example 165]	2.3
N#Cc1cnc(NCc2ccccc2OC(F)(F)F)nc1NCC1CC2CCC(C1)N2 (stereo not shown) [Example 170, 4-[(8-azabicyclo[3.2.1]oct-3-ylmethyl)amino]-2-{[2-(trifluoromethoxy)benzyl]amino}pyrimidine-5-carbonitrile dihydrochloride]	110
N#Cc1cnc(NCc2ccccc2OC(F)(F)F)nc1NCC1[C@@H]2CC3C[C@H]1C[C@@](CN)(C3)C2 (stereo partly shown) [Example 183]	29
N#Cc1cnc(Nc2cccc(Br)c2)nc1NC[C@]12CC3C[C@H](C1)[C@@H](N)[C@@H](C3)C2 [Example 187]	3.8
COc1ccccc1CNc1ncc(C#N)c(NC[C@]23CC4C[C@H](C2)[C@@H](NCC(O)CCO)[C@@H](C4)C3)n1 (stereo partly shown) [Example 189]	1.7
